The values that follow come from patent US8207172B2 (Bayer Intellectual Property GmbH, priority 2004, dated 2012).

Structures can show the parent of a compound that is named as a salt.

Test [1] concerns A431 cells (human epidermoid carcinoma). The test is described as follows: In vitro tumor cell proliferation assay (Cell Titer-Glo luminescent cell viability), A431. The class given is cell-based. The conditions noted are these: A-431, 72 h, 72 hours of drug exposure, ATP luminescence readout, read-out: IC50, anti-proliferative activity (inhibition of cell proliferation). Summed up: (§1)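 Proliferation inhibition was measured as ATP-dependent luciferase signal after cells in RPMI with 10% FBS received test compound for 72 h at 37° C. Final concentrations spanned […] to 64 pM in 0.1% DMSO; IC50 values were derived.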
(ATP-based viability assays read luminescence as a measure of living cells.)

For test [2], the system named is BT474 (human breast carcinoma). Kind of test: In vitro tumor cell proliferation assay (Cell Titer-Glo luminescent cell viability), BT474. The class given is cell-based. To be noted: BT-474, 72 h, BT474 cells, 72 hours of drug exposure, ATP luminescence readout, read-out: IC50, anti-proliferative activity (inhibition of cell proliferation). An outline of the steps: as §1

Regarding `CN(C)C1CCN(C(=O)Cn2ncc3c2CCc2c-3sc3ncnc(Nc4ccc(OCc5cccc(F)c5)c(Cl)c4)c23)C1` (centres unmarked) [Example 215, N-{3-chloro-4-[(3-fluorobenzyl)oxy]phenyl}-3-{2-[3-(dimethylamino)pyrrolidin-1-yl]-2-oxoethyl}-4,5-dihydro-3H-pyrimido[5′,4′:4,5]thieno[2,3-e]indazol-6-amine], the IC50 was at most 5 µM in test [1] and at most 1 µM in test [2].
Taken in the same sequence, the figures for `CC(C)(C)OC(=O)N1CCC(n2cc3c(n2)CCc2c-3sc3ncnc(Nc4ccc(OCc5cccc(F)c5)c(Cl)c4)c23)CC1` [Example 216, tert-butyl 4-[6-({3-chloro-4-[(3-fluorobenzyl)oxy]phenyl}amino)-4,5-dihydro-2H-pyrimido[5′,4′:4,5]thieno[2,3-e]indazol-2-yl]piperidine-1-carboxylate] were at most 50 µM and at most 50 µM.
The corresponding values for `Fc1cccc(COc2ccc(Nc3ncnc4sc5c(c34)CCc3nn(C4CCNCC4)cc3-5)cc2Cl)c1` [Example 217, N-{3-chloro-4-[(3-fluorobenzyl)oxy]phenyl}-2-piperidin-4-yl-4,5-dihydro-2H-pyrimido[5′,4′:4,5]thieno[2,3-e]indazol-6-amine] are at most 5 µM and at most 1 µM.
Taken in the same sequence, the figures for `O=C(CCl)N1CCC(n2cc3c(n2)CCc2c-3sc3ncnc(Nc4ccc(OCc5cccc(F)c5)c(Cl)c4)c23)CC1` [Example 218, 2-[1-(chloroacetyl)piperidin-4-yl]-N-{3-chloro-4-[(3-fluorobenzyl)oxy]phenyl}-4,5-dihydro-2H-pyrimido[5′,4′:4,5]thieno[2,3-e]indazol-6-amine] were at most 50 µM and at most 1 µM.
`CN(C)[C@@H]1CCN(CC(=O)N2CCC(n3cc4c(n3)CCc3c-4sc4ncnc(Nc5ccc(OCc6cccc(F)c6)c(Cl)c5)c34)CC2)C1` [Example 219, N-{3-chloro-4-[(3-fluorobenzyl)oxy]phenyl}-2-(1-{[(3R)-3-(dimethylamino)pyrrolidin-1-yl]acetyl}piperidin-4-yl)-4,5-dihydro-2H-pyrimido[5′,4′:4,5]thieno[2,3-e]indazol-6-amine]: the values for the IC50 in test [1] and in test [2] were at most 5 µM and at most 1 µM, respectively.
Taken in the same sequence, the figures for `CCN(CC)CC(=O)N1CCC(n2cc3c(n2)CCc2c-3sc3ncnc(Nc4ccc(OCc5cccc(F)c5)c(Cl)c4)c23)CC1` [Example 220, N-{3-chloro-4-[(3-fluorobenzyl)oxy]phenyl}-2-{1-[(diethylamino)acetyl]piperidin-4-yl}-4,5-dihydro-2H-pyrimido[5′,4′:4,5]thieno[2,3-e]indazol-6-amine] were at most 5 µM and at most 1 µM.
The corresponding values for `O=C(CN1CCNCC1)N1CCC(n2cc3c(n2)CCc2c-3sc3ncnc(Nc4ccc(OCc5cccc(F)c5)c(Cl)c4)c23)CC1` [Example 221, N-{3-chloro-4-[(3-fluorobenzyl)oxy]phenyl}-2-[1-(piperazin-1-ylacetyl)piperidin-4-yl]-4,5-dihydro-2H-pyrimido[5′,4′:4,5]thieno[2,3-e]indazol-6-amine] are at most 50 µM and at most 1 µM.
Taken in the same sequence, the figures for `O=C(CN1CCOCC1)N1CCC(n2cc3c(n2)CCc2c-3sc3ncnc(Nc4ccc(OCc5cccc(F)c5)c(Cl)c4)c23)CC1` [Example 222, N-{3-chloro-4-[(3-fluorobenzyl)oxy]phenyl}-2-[1-(morpholin-4-ylacetyl)piperidin-4-yl]-4,5-dihydro-2H-pyrimido[5′,4′:4,5]thieno[2,3-e]indazol-6-amine] were at most 5 µM and at most 1 µM.
As for `CN(C)[C@H]1CCN(CC(=O)N2CCC(n3cc4c(n3)CCc3c-4sc4ncnc(Nc5ccc(OCc6cccc(F)c6)c(Cl)c5)c34)CC2)C1` [Example 223, N-{3-chloro-4-[(3-fluorobenzyl)oxy)phenyl}-2-(1-{[(3S)-3-(dimethylamino)pyrrolidin-1-yl]acetyl}piperidin-4-yl)-4,5-dihydro-2H-pyrimido[5′,4′:4,5]thieno[2,3-e]indazol-6-amine], the results for the IC50 in test [1] and in test [2] were at most 5 µM and at most 1 µM, respectively.
Taken in the same sequence, the figures for `CN1CCN(CC(=O)N2CCC(n3cc4c(n3)CCc3c-4sc4ncnc(Nc5ccc(OCc6cccc(F)c6)c(Cl)c5)c34)CC2)CC1` [Example 224, N-{3-chloro-4-[(3-fluorobenzyl)oxy]phenyl}-2-{1-[(4-methylpiperazin-1-yl)acetyl]piperidin-4-yl}-4,5-dihydro-2H-pyrimido[5′,4′:4,5]thieno[2,3-e]indazol-6-amine] were at most 5 µM and at most 1 µM.
The corresponding values for `C[N+]1(C)CCC(n2cc3c(n2)CCc2c-3sc3ncnc(Nc4ccc(OCc5cccc(F)c5)c(Cl)c4)c23)CC1` [Example 225, 4-[6-({3-chloro-4-[(3-fluorobenzyl)oxy]phenyl}amino)-4,5-dihydro-2H-pyrimido[5′,4′:4,5]thieno[2,3-e]indazol-2-yl]-1,1-dimethylpiperidinium trifluoroacetate] are at most 50 µM and at most 5 µM.
Taken in the same sequence, the figures for `CC[N+]1(CC)CCC(n2cc3c(n2)CCc2c-3sc3ncnc(Nc4ccc(OCc5cccc(F)c5)c(Cl)c4)c23)CC1` [Example 226, 4-[6-({3-chloro-4-[(3-fluorobenzyl)oxy]phenyl}amino)-4,5-dihydro-2H-pyrimido[5′,4′:4,5]thieno[2,3-e]indazol-2-yl]-1,1-diethylpiperidinium trifluoroacetate] were at most 5 µM and at most 1 µM.
Take `CC(C)N1CCC(n2cc3c(n2)CCc2c-3sc3ncnc(Nc4ccc(OCc5cccc(F)c5)c(Cl)c4)c23)CC1` [Example 227, N-{3-chloro-4-[(3-fluorobenzyl)oxy]phenyl}-2-(1-isopropylpiperidin-4-yl)-4,5-dihydro-2H-pyrimido[5′,4′:4,5]thieno[2,3-e]indazol-6-amine]: the values for the IC50 in test [1] and in test [2] were at most 5 µM and at most 1 µM, respectively.
As for `CN1CCC(n2cc3c(n2)CCc2c-3sc3ncnc(Nc4ccc(OCc5cccc(F)c5)c(Cl)c4)c23)CC1` [Example 228, N-{3-chloro-4-[(3-fluorobenzyl)oxy]phenyl}-2-(1-methylpiperidin-4-yl)-4,5-dihydro-2H-pyrimido[5′,4′:4,5]thieno[2,3-e]indazol-6-amine], the IC50 is at most 5 µM in test [1] and at most 1 µM in test [2].
The corresponding values for `CCCN1CCC(n2cc3c(n2)CCc2c-3sc3ncnc(Nc4ccc(OCc5cccc(F)c5)c(Cl)c4)c23)CC1` [Example 229, N-{3-chloro-4-[(3-fluorobenzyl)oxy]phenyl}-2-(1-propylpiperidin-4-yl)-4,5-dihydro-2H-pyrimido[5′,4′:4,5]thieno[2,3-e]indazol-6-amine] are at most 5 µM and at most 1 µM.
Take `CCN1CCC(n2cc3c(n2)CCc2c-3sc3ncnc(Nc4ccc(OCc5cccc(F)c5)c(Cl)c4)c23)CC1` [Example 230, N-{3-chloro-4-[(3-fluorobenzyl)oxy]phenyl}-2-(1-ethylpiperidin-4-yl)-4,5-dihydro-2H-pyrimido[5′,4′:4,5]thieno[2,3-e]indazol-6-amine]: the IC50 in test [1] was at most 5 µM; in test [2] it was at most 1 µM.
